Data taken from ChEMBL document CHEMBL1156492, “(R)- and (S)-verapamil differentially modulate the multidrug-resistant protein MRP1” (J Biol Chem, 2007).
Activity calls are given as the source filed them. The calls are words filed in the database; no cut-off is given here.

Tests used:
Assay type in all cases: functional, cell-based
BHK-21 [1] = assay: Cytotoxicity against hamster BHK21 cells by MTT assay; conditions: Mesocricetus auratus
BHK-21 [2] = assay: Cytotoxicity against human MRP1 expressing hamster BHK21 cells at 10 to 20 uM by MTT assay; conditions: Mesocricetus auratus
BHK-21 [3] = assay: Cytotoxicity against hamster BHK21 cells after 72 hrs by MTT assay; conditions: Mesocricetus auratus, BHK-21, 72 h
BHK-21 [4] = assay: Cytotoxicity against human MRP1 expressing hamster BHK21 cells after 72 hrs by MTT assay; conditions: Mesocricetus auratus, BHK-21, 72 h
BHK-21 [5] = assay: Decrease in intracellular glutathione concentration in human MRP1 expressing hamster BHK21 cells; conditions: Mesocricetus auratus
BHK-21 [6] = assay: Decrease in intracellular glutathione concentration in human MRP1 expressing hamster BHK21 cells at 5 uM; conditions: Mesocricetus auratus

`COc1ccc(CCN(C)CCCC(C#N)(c2ccc(OC)c(OC)c2)C(C)C)cc1OC` (racemic) was tested. Which Activity (BHK-21 [1]) did it give?
Its Activity is “inactive”.

And the Activity (BHK-21 [2])?
Its Activity is “Active”.

What does the source list for `CC[C@]1(O)C[C@H]2CN(CCc3c([nH]c4ccccc34)[C@@](C(=O)OC)(c3cc4c(cc3OC)N(C=O)[C@H]3[C@@](O)(C(=O)OC)[C@H](OC(C)=O)[C@]5(CC)C=CCN6CC[C@]43[C@@H]65)C2)C1` [VINCRISTINE]?
IC50 (BHK-21 [3]): 1.51 nM; IC50 (BHK-21 [4]): 9.42 nM

How did the Activity (BHK-21 [5]) turn out when `COc1ccc(CCN(C)CCC[C@](C#N)(c2ccc(OC)c(OC)c2)C(C)C)cc1OC` was run?
Its Activity is “inactive”.

Which results are given for `COc1ccc(CCN(C)CCC[C@@](C#N)(c2ccc(OC)c(OC)c2)C(C)C)cc1OC`?
Activity (BHK-21 [6]): Active; Activity (BHK-21 [5]): Active
